System: B16 melanoma cells
Assay: costimulatory/co-inhibitory molecule expression on B16 melanoma cells (flow cytometry)
Type: cell-based
Set-up: key to Upregulated (√)/No change (—) Costimulatory MHC CI / Upregulated (√)/No change (—) Costimulatory CD40 / Upregulated (√)/No change (—) Costimulatory CD80 / Upregulated (√)/No change (—) Costimulatory CD86 / Upregulated (√)/No change (—) Coinhibitory TIGIT / Upregulated (√)/No change (—) Coinhibitory PD-L1 / Upregulated (√)/No change (—) Coinhibitory PD-1: upregulated (√); no change (—)
Conditions: 24 hours, C90, C100, protasan 40 μg/ml, CpG 4 μg/ml, Etoposide 200 μM, DMXAA 10 μg/ml; for Fold increase in MFI Coinhibitory PD-1 / Fold increase in MFI Coinhibitory PD-L1 / Fold increase in MFI Coinhibitory TIGIT / Fold increase in MFI Costimulatory CD40 / Fold increase in MFI Costimulatory CD80 / Fold increase in MFI Costimulatory CD86 / Fold increase in MFI Costimulatory MHC CI: compared to unstimulated control
Description: Flow cytometric analysis of costimulatory molecule expression on B16-F10 cells: 2×10^5 B16 melanoma cells were stimulated with media or 40 μg/ml, C90, C100 or protasan for 24 hours in 24 well plates. Cells were removed from wells using ice cold PBS-EDTA, transferred to labelled FACS tubes and washed with 2 mL of PBS. Cells were stained with BV510 viability dye (1 in 1000 dilition) for 15 minutes at room temperature. Cells were then washed in PBS, and stained for cell surface markers for 30 minutes at room temperature. Cells were then washed in PBS, resuspended in […] of FACs buffer, with samples acquired via BD FACSCanto and the data analysed using Flowjo™ software (Treestar, Oregon).

Row | SMILES | Upregulated (√)/No change (—) Coinhibitory PD-1 | Upregulated (√)/No change (—) Coinhibitory PD-L1 | Upregulated (√)/No change (—) Coinhibitory TIGIT | Upregulated (√)/No change (—) Costimulatory CD40 | Upregulated (√)/No change (—) Costimulatory CD80 | Upregulated (√)/No change (—) Costimulatory CD86 | Upregulated (√)/No change (—) Costimulatory MHC CI | Fold increase in MFI Coinhibitory PD-1 [fold] | Fold increase in MFI Coinhibitory PD-L1 [fold] | Fold increase in MFI Coinhibitory TIGIT [fold] | Fold increase in MFI Costimulatory CD40 [fold] | Fold increase in MFI Costimulatory CD80 [fold] | Fold increase in MFI Costimulatory CD86 [fold] | Fold increase in MFI Costimulatory MHC CI [fold]
1 | Cc1ccc2c(=O)c3cccc(CC(=O)O)c3oc2c1C [DMXAA] | √ | √ | √ | — | — | — | √ | 1.2 | 1.2 | 1.3 | 1.1 | 1.0 | 1.1 | 1.2
2 | COc1cc([C@@H]2c3cc4c(cc3[C@@H](O[C@@H]3O[C@@H]5CO[C@@H](C)O[C@H]5[C@H](O)[C@H]3O)[C@H]3COC(=O)[C@H]23)OCO4)cc(OC)c1O [Etoposide] | — | √ | √ √ | √ √ | √ √ | √ √ | √ √ √ | 1.0 | 1.6 | 1.7 | 1.9 | 2.2 | 1.9 | 3.0
